Here are results for seven molecules from US20240158466A1, “PEGYLATED P-SELECTIN INHIBITORS” (Beth Israel Deaconess Medical Center, Inc., priority 2021, published 2024).

By IC50 is commonly meant the concentration at which inhibition is half-maximal. As usually defined, the Kd is the concentration at which binding is half-saturated.

One data set concerns vein recanalization. The settings on record: primate models; cited from earlier work.
The subject of a further data set is venous thrombus. In words: Murine model of non-occlusive venous thrombosis (electrolytic injury of inferior vena cava). It is filed as in vivo, C57BL/6 mice. On the procedure:
Enoxaparin was administered subcutaneously (6 mg/kg) 4 hours prior and 24 hours after electrolytic injury as a clinically relevant control. […] Venous side branches were ligated or cauterized, while posterior branches were left patent. A 25-gauge stainless steel needle, attached to a silver-coated copper wire was inserted into the exposed caudal vena cava and positioned against the anterior wall (anode). A second wire was implanted subcutaneously to complete the circuit (cathode) and a 250 μAmps current applied for 15 min. Subsequently, the needle was removed and a cotton swab held in gentle contact with the puncture site to prevent bleeding. The vena cava and associated thrombus, immediately below the renal veins to just above the bifurcation, was excised 48 hours after injury for determination of wet thrombus weight and histological examination. Specimens were fixed overnight in 10% neutral buffered formalin, processed for paraffin embedding, and 5 μm sections stained with hematoxylin and eosin (H&E) or antibodies specific to neutrophils (Ly-6G, BD Biosciences) and monocytes (CD68, Abeam, Cambridge, MA). The circumference of the vein wall was imaged at 20× magnification and leukocyte infiltration was quantified in 3 representative animals/group, 5 to 10 sections/tissue sample.

The next data set concerns hemostasis. In words: Tail vein transection bleeding time. It counts as in vivo, mouse. As to conditions: PG-6 8 μmol/kg or enoxaparin (LMWH) 6 mg/kg intravenous, 5 min prior to transection. As to the method:
Hemostasis was assessed using a tail vein transection model to determine bleeding time.^63 Mice were anesthetized with ketamine and xylazine by intraperitoneal injection and placed on a warming mat at 37° C. Sterile saline, enoxaparin (6 mg/kg), or PG-6 in 125 μL of sterile saline was injected into the penile vein. Five minutes after administration of test compound, the lateral tail vein was transected with a number 11 scalpel blade at a tail width of 2.3 mm and immediately submerged in 37° C. phosphate buffered saline. The bleeding time was determined at that instant when bleeding had ceased for 30 seconds. Animals were excluded if arterial bleeding was present.

The target of data set [1] is P-selectin on activated mouse platelets (mouse) (UniProt Q01102). Kind of data set: cell-based or functional assay.
Data set [2] deals with P-selectin on activated human platelets (human) (UniProt P16109). Kind of data set: cell-based or functional assay.
Data set [3] concerns the target T1, P-selectin (Homo sapiens, UniProt P16109).
T1 sequence (P16109 42-830): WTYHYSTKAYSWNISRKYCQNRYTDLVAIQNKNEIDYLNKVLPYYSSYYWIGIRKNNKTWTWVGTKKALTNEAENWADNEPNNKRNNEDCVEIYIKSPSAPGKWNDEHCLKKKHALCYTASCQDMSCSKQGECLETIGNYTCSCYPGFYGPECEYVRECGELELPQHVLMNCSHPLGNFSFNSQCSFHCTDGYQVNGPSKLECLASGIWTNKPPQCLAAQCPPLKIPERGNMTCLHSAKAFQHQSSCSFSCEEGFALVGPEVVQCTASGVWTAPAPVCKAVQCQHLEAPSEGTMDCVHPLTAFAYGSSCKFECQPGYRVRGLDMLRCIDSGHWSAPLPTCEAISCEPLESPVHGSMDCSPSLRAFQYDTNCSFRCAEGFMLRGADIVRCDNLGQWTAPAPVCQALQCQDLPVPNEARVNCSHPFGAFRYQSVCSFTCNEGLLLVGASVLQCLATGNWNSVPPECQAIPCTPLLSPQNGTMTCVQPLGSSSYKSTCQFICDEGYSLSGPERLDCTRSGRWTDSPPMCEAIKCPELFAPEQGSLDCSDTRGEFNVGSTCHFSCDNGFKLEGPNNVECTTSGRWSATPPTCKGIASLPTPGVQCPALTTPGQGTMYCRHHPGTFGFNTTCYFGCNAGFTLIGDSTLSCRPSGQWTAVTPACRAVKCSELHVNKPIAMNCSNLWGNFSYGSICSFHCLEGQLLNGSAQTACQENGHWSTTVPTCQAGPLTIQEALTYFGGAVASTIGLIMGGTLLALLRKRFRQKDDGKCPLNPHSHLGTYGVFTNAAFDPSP
The settings on record: synthetic P-selectin antagonists, literature refs 48,49; cited from earlier work.

Data set [4] has as its system platelet-monocyte aggregation. The settings on record: humans; cited from earlier work.
In the next data set the test system is vein wall injury. As to conditions: rats; cited from earlier work.
Another data set concerns thrombus. As to conditions: mice; cited from earlier work.
The conditions of data set [5]: high affinity biologics; cited from earlier work.
The target of data set [6] is T1, P-selectin. As to conditions: cited from earlier work.

Sequence of P-selectin on activated mouse platelets (mouse) (Q01102 42-768): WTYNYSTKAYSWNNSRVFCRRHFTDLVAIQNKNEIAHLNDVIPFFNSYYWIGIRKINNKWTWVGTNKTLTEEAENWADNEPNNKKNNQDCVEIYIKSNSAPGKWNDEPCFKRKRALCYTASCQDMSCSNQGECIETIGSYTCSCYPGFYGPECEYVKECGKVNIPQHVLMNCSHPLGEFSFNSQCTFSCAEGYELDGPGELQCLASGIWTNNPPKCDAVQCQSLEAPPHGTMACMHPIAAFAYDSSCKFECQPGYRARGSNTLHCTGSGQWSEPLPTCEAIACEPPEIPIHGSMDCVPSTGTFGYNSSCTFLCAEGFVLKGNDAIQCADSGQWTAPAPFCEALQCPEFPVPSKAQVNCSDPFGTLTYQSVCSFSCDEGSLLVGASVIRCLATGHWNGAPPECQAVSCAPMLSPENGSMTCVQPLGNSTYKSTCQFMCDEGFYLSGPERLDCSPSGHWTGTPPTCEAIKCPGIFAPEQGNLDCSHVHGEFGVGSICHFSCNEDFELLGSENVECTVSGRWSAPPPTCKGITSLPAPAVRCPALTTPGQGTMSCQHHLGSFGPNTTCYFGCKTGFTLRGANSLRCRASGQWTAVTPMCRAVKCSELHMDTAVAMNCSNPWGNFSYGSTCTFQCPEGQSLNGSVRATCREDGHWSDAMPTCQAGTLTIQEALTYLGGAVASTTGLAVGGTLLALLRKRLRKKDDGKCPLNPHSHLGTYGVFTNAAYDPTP

For the molecule `O=C(O)c1c(O)c(C2(c3ccc(Cl)cc3)CC2)nc2c(C(F)(F)F)cccc12` [PSI-421, 2-[1-(4-chlorophenyl)cyclopropyl]-3-hydroxy-8-(trifluoromethyl)quinoline-4-carboxylic acid], the vein recanalization entry in the data set on vein recanalization is listed as “enhanced”.

In the case of enoxaparin, the “thrombus formation / thrombus weight vs saline vehicle” value in the data set with venous thrombus (48 h after electrolytic injury, PG-6 8 μmol/kg IV, LMWH 6 mg/kg SC) was “significant reduction”. Moreover, in the data set with venous thrombus (48 h after thrombus induction), the “infiltrating CD68+ macrophages in vein wall” value is “significant reduction” and the “infiltrating Ly6G+ neutrophils in vein wall” value is given as “significant reduction”. Also, in the data set with hemostasis, the “tail vein transection bleeding time” value is on record as “prolonged”. The “tail vein transection bleeding time” value in the data set with hemostasis (listed as LMWH) is given as “significant increase”.

In data set [1], PEG40-GSnP-6 (PG-6) (peptide) yielded a murine platelet-monocyte aggregates (flow cytometry, whole blood, PG-6 120 uM) of 45 % reduction and a murine platelet-neutrophil aggregates (flow cytometry, whole blood, PG-6 120 uM) of 38 % reduction. In data set [2], this molecule gave a human platelet-monocyte aggregates (flow cytometry, whole blood, PG-6 120 uM) of 29 % reduction and a human platelet-neutrophil aggregates (flow cytometry, whole blood, PG-6 120 uM) of 42 % reduction.

In the case of `C[C@@H]1O[C@@H](O[C@@H]2[C@@H](NC(=O)c3cc(=O)[nH]c(=O)[nH]3)C[C@@H](C(=O)NCCNC(=O)COCCOCC(=O)Nc3cc(S(=O)(=O)O)cc4cc(S(=O)(=O)O)cc(S(=O)(=O)O)c34)C[C@H]2O[C@@H]2O[C@H](CO)[C@H](O)[C@H](O[C@@H](CC3CCCCC3)C(=O)O)[C@H]2OC(=O)c2ccccc2)[C@@H](O)[C@H](O)[C@@H]1O` [GMI-1070], the IC50 at P-selectin [3] is 423 µM.

For the molecule `O=C(O)c1c(O)c(Cc2ccc(Cl)cc2)nc2c3c(ccc12)CCCC3` [PSI-697], the vein recanalization entry in the data set with vein recanalization is “enhanced”. Also, the “inhibition of platelet-monocyte aggregation in a phase I trial” value in [4] is “failed to inhibit”. In addition, in the data set on vein wall injury, the “wall stiffness, neointima formation, extravasation of inflammatory cells” value was “decreased”. Moreover, the thrombus weight result in the data set with thrombus is given as “reduced”.

B1: crizanlizumab: the only approved P-selectin inhibitor, an antibody (antibody, chains of the INN, looked up, V domains shown)
VH: QVQLVQSGAEVKKPGASVKVSCKVSGYTFTSYDINWVRQAPGKGLEWMGWIYPGDGSIKYNEKFKGRVTMTVDKSTDTAYMELSSLRSEDTAVYYCARRGEYGNYEGAMDYWGQGTLVTVSS
VL: DIQMTQSPSSLSASVGDRVTITCKASQSVDYDGHSYMNWYQQKPGKAPKLLIYAASNLESGVPSRFSGSGSGTDFTLTISSLQPEDFATYYCQQSDENPLTFGGGTKVEIK
Turning to B1, in data set [5], the t1/2 is recorded as 10.6 days. The “Kd for P-selectin (in words)” value with P-selectin [6] (approved antibody) was “low nanomolar range”.

B2: PSGL-1: P-selectin glycoprotein ligand-1, native cognate ligand of P-selectin (protein, UniProt Q14242 42-412, looked up)
P-selectin glycoprotein …: QATEYEYLDYDFLPETEPPEMLRNSTDTTPLTGPGTPESTTVEPAARRSTGLDAGGAVTELTTELANMGNLSTDSAAMEIQTTQPAATEAQTTQPVPTEAQTTPLAATEAQTTRLTATEAQTTPLAATEAQTTPPAATEAQTTQPTGLEAQTTAPAAMEAQTTAPAAMEAQTTPPAAMEAQTTQTTAMEAQTTAPEATEAQTTQPTATEAQTTPLAAMEALSTEPSATEALSMEPTTKRGLFIPFSVSSVTHKGIPMAASNLSVNYPVGAPDHISVKQCLLAILILALVATIFFVCTVVLAVRLSRKGHMYPVRNYSPTEMVCISSLLPDGGEGPSATANGGLSKAKSPGLTPEPREDREGDDLTLHSFLP
For the molecule B2, in the data set with P-selectin [6] (reported values), the Kd was 0.07 to 0.3 µM.
